{"source": "patent US7759337B2", "about": "“Phthalazine compounds and methods of use” (Amgen Inc., priority 2005, dated 2010)", "test_system": "production of TNF by monocytes activated with bacterial lipopolysaccharide (LPS)", "test": "Lipopolysaccharide-activated monocyte TNF production assay", "format": "cell-based", "conditions": "Homo sapiens; whole blood monocyte assay (LPS induced TNF release)", "procedure,_shortened": "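Adherent human PBMC-derived monocytes preincubated 60 min with nine two-fold compound dilutions, then stimulated with E. coli K532 LPS (30 ng/mL in the added medium) for 4 h at 37 °C. Supernatant TNF measured by sandwich ELISA; IC50 is the compound concentration halving TNF production, from second-order polynomial fits.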"}
{"smiles": "Cc1ccc(C(N)=O)cc1-c1ccc2c(-c3cncnc3)nncc2c1", "note": "[Example 215, 4-methyl-3-(1-pyrimidin-5-ylphthalazin-6-yl)benzamide]", "values": [{"measurement": "IC50", "value": "≤ 5", "unit": "µM"}]}
{"smiles": "Cc1ccc(C(N)=O)cc1-c1ccc2c(-c3cc4ccccc4[nH]3)nncc2c1", "note": "[Example 216, 3-[1-(1H-indol-2-yl)phthalazin-6-yl]-4-methylbenzamide]", "values": [{"measurement": "IC50", "value": "≤ 5", "unit": "µM"}]}
{"smiles": "Cc1ccc(C(N)=O)cc1-c1ccc2c(-c3ccc(F)cc3C)nncc2c1", "note": "[Example 217, 3-[1-(4-fluoro-2-methylphenyl)phthalazin-6-yl]-4-methylbenzamide]", "values": [{"measurement": "IC50", "value": "≤ 5", "unit": "µM"}]}
{"smiles": "Cc1ccc(C(=O)NC2CC2)cc1-c1ccc2c(-c3ccc(S(N)(=O)=O)cc3C)nncc2c1", "note": "[Example 218, 3-{1-[4-(aminosulfonyl)-2-methylphenyl]phthalazin-6-yl}-N-cyclopropyl-4-methylbenzamide]", "values": [{"measurement": "IC50", "value": "≤ 5", "unit": "µM"}]}
{"smiles": "Cc1ccc(C(=O)NC2CC2)cc1-c1ccc2c(-c3ccc(C(F)(F)F)cc3Cl)nncc2c1", "note": "[Example 219, 3-{1-[2-chloro-4-(trifluoromethyl)phenyl]phthalazin-6-yl}-N-cyclopropyl-4-methylbenzamide]", "values": [{"measurement": "IC50", "value": "≤ 5", "unit": "µM"}]}
{"smiles": "Cc1ccc(C(N)=O)cc1-c1ccc2c(-c3ccccc3C(F)(F)F)nncc2c1", "note": "[Example 220, 4-methyl-3-{1-[2-(trifluoromethyl)phenyl]phthalazin-6-yl}benzamide]", "values": [{"measurement": "IC50", "value": "≤ 5", "unit": "µM"}]}
{"smiles": "Cc1ccc(-c2nncc3cc(-c4cc(C(N)=O)ccc4C)ccc23)c(Cl)c1", "note": "[Example 221, 3-[1-(2-chloro-4-methylphenyl)phthalazin-6-yl]-4-methylbenzamide]", "values": [{"measurement": "IC50", "value": "≤ 5", "unit": "µM"}]}
{"smiles": "Cc1ccc(C(N)=O)cc1-c1ccc2c(-c3ccc(F)cc3Cl)nncc2c1", "note": "[Example 222, 3-[1-(2-chloro-4-fluorophenyl)phthalazin-6-yl]-4-methylbenzamide]", "values": [{"measurement": "IC50", "value": "≤ 5", "unit": "µM"}]}
{"smiles": "Cc1ccc(C(N)=O)cc1-c1ccc2c(-c3ccc(Cl)cc3Cl)nncc2c1", "note": "[Example 223, 3-[1-(2,4-dichlorophenyl)phthalazin-6-yl]-4-methylbenzamide]", "values": [{"measurement": "IC50", "value": "≤ 5", "unit": "µM"}]}
{"smiles": "COc1cc(Cl)ccc1-c1nncc2cc(-c3cc(C(=O)NC4CC4)ccc3C)ccc12", "note": "[Example 224, 3-[1-(4-chloro-2-methoxyphenyl)phthalazin-6-yl]-N-cyclopropyl-4-methylbenzamide]", "values": [{"measurement": "IC50", "value": "≤ 5", "unit": "µM"}]}
{"smiles": "COc1ncc(-c2nncc3cc(-c4cc(C(N)=O)ccc4C)ccc23)c(OC)n1", "note": "[Example 225, 3-[1-(2,4-dimethoxypyrimidin-5-yl)phthalazin-6-yl]-4-methylbenzamide]", "values": [{"measurement": "IC50", "value": "≤ 5", "unit": "µM"}]}
{"smiles": "COc1ccc(-c2nncc3cc(-c4cc(C(N)=O)ccc4C)ccc23)c(OC)c1", "note": "[Example 226, 3-[1-(2,4-dimethoxyphenyl)phthalazin-6-yl]-4-methylbenzamide]", "values": [{"measurement": "IC50", "value": "≤ 5", "unit": "µM"}]}
{"smiles": "Cc1ccc(C(N)=O)cc1-c1ccc2c(-c3ccc(OC(C)C)cc3C)nncc2c1", "note": "[Example 227, 3-[1-(4-isopropoxy-2-methylphenyl)phthalazin-6-yl]-4-methylbenzamide]", "values": [{"measurement": "IC50", "value": "≤ 5", "unit": "µM"}]}
{"smiles": "COc1ncccc1-c1nncc2cc(-c3cc(C(N)=O)ccc3C)ccc12", "note": "[Example 228, 3-[1-(2-methoxypyridin-3-yl)phthalazin-6-yl]-4-methylbenzamide]", "values": [{"measurement": "IC50", "value": "≤ 5", "unit": "µM"}]}
{"smiles": "COc1ccc(-c2nncc3cc(-c4cc(C(N)=O)ccc4C)ccc23)c(Cl)c1", "note": "[Example 229, 3-[1-(2-chloro-4-methoxyphenyl)phthalazin-6-yl]-4-methylbenzamide]", "values": [{"measurement": "IC50", "value": "≤ 5", "unit": "µM"}]}
{"smiles": "COc1ncccc1-c1nncc2cc(-c3cc(C(=O)NC4CC4)ccc3C)ccc12", "note": "[Example 230, N-cyclopropyl-3-[1-(2-methoxypyridin-3-yl)phthalazin-6-yl]-4-methylbenzamide]", "values": [{"measurement": "IC50", "value": "≤ 5", "unit": "µM"}]}
{"smiles": "CCOc1ccc(-c2nncc3cc(-c4cc(C(N)=O)ccc4C)ccc23)c(Cl)c1", "note": "[Example 231, 3-[1-(2-chloro-4-ethoxyphenyl)phthalazin-6-yl]-4-methylbenzamide]", "values": [{"measurement": "IC50", "value": "≤ 5", "unit": "µM"}]}
{"smiles": "Cc1ccc(C(N)=O)cc1-c1ccc2c(-c3ccc(Cl)cc3C)nncc2c1", "note": "[Example 232, 3-[1-(4-chloro-2-methylphenyl)phthalazin-6-yl]-4-methylbenzamide]", "values": [{"measurement": "IC50", "value": "≤ 5", "unit": "µM"}]}
{"smiles": "Cc1ccc(C(=O)NC2CC2)cc1-c1ccc2c(-c3cccnc3Cl)nncc2c1", "note": "[Example 233, 3-[1-(2-chloropyridin-3-yl)phthalazin-6-yl]-N-cyclopropyl-4-methylbenzamide]", "values": [{"measurement": "IC50", "value": "≤ 5", "unit": "µM"}]}
{"smiles": "COc1ncc(-c2nncc3cc(-c4cc(C(=O)NC5CC5)ccc4C)ccc23)c(OC)n1", "note": "[Example 234, N-cyclopropyl-3-[1-(2,4-dimethoxypyrimidin-5-yl)phthalazin-6-yl]-4-methylbenzamide]", "values": [{"measurement": "IC50", "value": "≤ 5", "unit": "µM"}]}
{"smiles": "Cc1ccc(-c2nncc3cc(-c4cc(C(=O)NC5CC5)ccc4C)ccc23)c(Cl)c1", "note": "[Example 235, 3-[1-(2-chloro-4-methylphenyl)phthalazin-6-yl]-N-cyclopropyl-4-methylbenzamide]", "values": [{"measurement": "IC50", "value": "≤ 5", "unit": "µM"}]}
{"smiles": "Cc1ccc(C(N)=O)cc1-c1ccc2c(-c3ccc(S(N)(=O)=O)cc3C)nncc2c1", "note": "[Example 236, 3-{1-[4-(aminosulfonyl)-2-methylphenyl]phthalazin-6-yl}-4-methylbenzamide]", "values": [{"measurement": "IC50", "value": "≤ 5", "unit": "µM"}]}
{"smiles": "COc1ccc(-c2nncc3cc(-c4cc(C(N)=O)ccc4C)ccc23)c(C(F)(F)F)c1", "note": "[Example 237, 3-{1-[4-methoxy-2-(trifluoromethyl)phenyl]phthalazin-6-yl}-4-methylbenzamide]", "values": [{"measurement": "IC50", "value": "≤ 5", "unit": "µM"}]}
{"smiles": "CCOc1cc(Cl)ccc1-c1nncc2cc(-c3cc(C(N)=O)ccc3C)ccc12", "note": "[Example 238, 3-[1-(4-chloro-2-ethoxyphenyl)phthalazin-6-yl]-4-methylbenzamide]", "values": [{"measurement": "IC50", "value": "≤ 5", "unit": "µM"}]}
{"smiles": "Cc1ccc(C(=O)NC2CC2)cc1-c1ccc2c(-c3ccc(F)cc3)nncc2c1", "note": "[Example 239, N-cyclopropyl-3-[1-(4-fluorophenyl)phthalazin-6-yl]-4-methylbenzamide]", "values": [{"measurement": "IC50", "value": "≤ 5", "unit": "µM"}]}
{"smiles": "Cc1ccc(C(=O)NC2CC2)cc1-c1ccc2c(-c3ccc(CC(=O)O)cc3)nncc2c1", "note": "[Example 240, [4-(6-{5-[(cyclopropylamino)carbonyl]-2-methylphenyl}phthalazin-1-yl)phenyl]acetic acid]", "values": [{"measurement": "IC50", "value": "≤ 5", "unit": "µM"}]}
{"smiles": "Cc1ccc(C(=O)NC2CC2)cc1-c1ccc2c(-c3cccnc3C)nncc2c1", "note": "[Example 241, N-cyclopropyl-4-methyl-3-[1-(2-methylpyridin-3-yl)phthalazin-6-yl]benzamide]", "values": [{"measurement": "IC50", "value": "≤ 5", "unit": "µM"}]}
{"smiles": "COc1ccc(-c2nncc3cc(-c4cc(C(=O)NC5CC5)ccc4C)ccc23)c(C)c1", "note": "[Example 242, N-cyclopropyl-3-[1-(4-methoxy-2-methylphenyl)phthalazin-6-yl]-4-methylbenzamide]", "values": [{"measurement": "IC50", "value": "≤ 5", "unit": "µM"}]}
{"smiles": "Cc1ccc(C(N)=O)cc1-c1ccc2c(-c3ccc([S+](C)[O-])cc3C)nncc2c1", "note": "(stereo not shown) [Example 243, 4-methyl-3-{1-[2-methyl-4-(methylsulfinyl)phenyl]phthalazin-6-yl}benzamide]", "values": [{"measurement": "IC50", "value": "≤ 5", "unit": "µM"}]}
{"smiles": "Cc1ccc(C(=O)NC2CC2)cc1-c1ccc2c(-c3cccs3)nncc2c1", "note": "[Example 244, N-cyclopropyl-4-methyl-3-(1-thien-2-ylphthalazin-6-yl)benzamide]", "values": [{"measurement": "IC50", "value": "≤ 5", "unit": "µM"}]}
{"smiles": "Cc1ccc(C(=O)NC2CC2)cc1-c1ccc2c(-c3ccc(OC(F)(F)F)cc3)nncc2c1", "note": "[Example 245, N-cyclopropyl-4-methyl-3-{1-[4-(trifluoromethoxy)phenyl]phthalazin-6-yl}benzamide]", "values": [{"measurement": "IC50", "value": "≤ 5", "unit": "µM"}]}
